Assay results as given in US6503881B2 (priority 1996, dated 2003).
Where two headings read alike, the source gives them in different places.

How the values were obtained:
[1] = system: E. faecium; format: cell-based; conditions: for MBI 26 MIC, +Teicoplanin: in combination with teicoplanin; for MIC in combination: Teicoplanin + MBI 26
[2] = system: A. calcoaceticus; experiment: Overcoming inherent resistance, MIC alone and in combination (agarose dilution); format: cell-based; conditions: A. calcoaceticus AC001
[3] = system: P. aeruginosa; format: cell-based
[4] = system: bacteria

For “KWKSFIKKLTSAAKKVVTTAKPLISS [MBI 26]”, the “MIC Alone” value ([1]; E. faecium 97001 VanB, agent alone) was 64 µg/mL, the “MBI 26 MIC, +Teicoplanin” value ([1]; E. faecium 97001 VanB) was 4 µg/mL and the “MIC Alone” value ([1]; E. faecium 97002 VanB, agent alone) was 64 µg/mL. For the same substance, the “MBI 26 MIC, +Teicoplanin” value ([1]; E. faecium 97002 VanB) was 1 µg/mL, the “MIC Alone” value ([1]; E. faecium 97003 VanB, agent alone) was 64 µg/mL and the “MBI 26 MIC, +Teicoplanin” value ([1]; E. faecium 97003 VanB) was 1 µg/mL. For the same substance, the “MIC Alone” value ([1]; E. faecium 97005 VanB, agent alone) was 64 µg/mL, the “MBI 26 MIC, +Teicoplanin” value ([1]; E. faecium 97005 VanB) was 2 µg/mL and the “MIC Alone” value ([1]; E. faecium 97006 VanB, agent alone) was 64 µg/mL. For the same substance, the “MBI 26 MIC, +Teicoplanin” value ([1]; E. faecium 97006 VanB) was 4 µg/mL, the “MIC Alone” value ([1]; E. faecium 97007 VanB, agent alone) was 64 µg/mL and the “MBI 26 MIC, +Teicoplanin” value ([1]; E. faecium 97007 VanB) was 1 µg/mL. For the same substance, the “MIC Alone” value ([1]; E. faecium 97008 VanB, agent alone) was 64 µg/mL, the “MBI 26 MIC, +Teicoplanin” value ([1]; E. faecium 97008 VanB) was 4 µg/mL and the “MIC Alone” value ([1]; E. faecium 97009 VanB, agent alone) was 32 µg/mL. For the same substance, the “MBI 26 MIC, +Teicoplanin” value ([1]; E. faecium 97009 VanB) was 1 µg/mL, the “MIC Alone” value ([1]; E. faecium 97010 VanB, agent alone) was 64 µg/mL and the “MBI 26 MIC, +Teicoplanin” value ([1]; E. faecium 97010 VanB) was 4 µg/mL. For the same substance, the “MIC Alone” value ([1]; E. faecium 97011 VanB, agent alone) was 64 µg/mL, the “MBI 26 MIC, +Teicoplanin” value ([1]; E. faecium 97011 VanB) was 4 µg/mL and the “MIC Alone” value ([1]; E. faecium 97012 VanB, agent alone) was 64 µg/mL. The “MBI 26 MIC, +Teicoplanin” value ([1]; E. faecium 97012 VanB) was 4 µg/mL, the “MIC Alone” value ([1]; E. faecium 97013 VanB, agent alone) was 64 µg/mL and the “MBI 26 MIC, +Teicoplanin” value ([1]; E. faecium 97013 VanB) was 8 µg/mL. For the same substance, the “MIC Alone” value ([1]; E. faecium 97014 VanB, agent alone) was 32 µg/mL, the “MBI 26 MIC, +Teicoplanin” value ([1]; E. faecium 97014 VanB) was 4 µg/mL and the “MIC Alone” value ([1]; E. faecium 97015 VanB, agent alone) was 64 µg/mL. For the same substance, the “MBI 26 MIC, +Teicoplanin” value ([1]; E. faecium 97015 VanB) was 4 µg/mL, the “MIC Alone” value ([1]; E. faecium 97016 VanB, agent alone) was 64 µg/mL and the “MBI 26 MIC, +Teicoplanin” value ([1]; E. faecium 97016 VanB) was 4 µg/mL. The “MIC Alone” value ([1]; E. faecium 97017 VanA) was 64 µg/mL, the MIC in combination ([1]; E. faecium 97017 VanA) was 4 µg/mL and the “MIC Alone” value ([1]; E. faecium 97018 VanA) was 64 µg/mL. For the same substance, the MIC in combination ([1]; E. faecium 97018 VanA) was 8 µg/mL, the “MIC Alone” value ([1]; E. faecium 97019 VanA) was 64 µg/mL and the MIC in combination ([1]; E. faecium 97019 VanA) was 16 µg/mL. The “MIC Alone” value ([1]; E. faecium 97020 VanA) was 64 µg/mL, the MIC in combination ([1]; E. faecium 97020 VanA) was 16 µg/mL and the “MIC Alone” value ([1]; E. faecium 97021 VanA) was 64 µg/mL. For the same substance, the MIC in combination ([1]; E. faecium 97021 VanA) was 32 µg/mL, the “MIC Alone” value ([1]; E. faecium 97022 VanA) was 64 µg/mL and the MIC in combination ([1]; E. faecium 97022 VanA) was 4 µg/mL. The “MIC Alone” value ([1]; E. faecium 97023 VanA) was 64 µg/mL, the MIC in combination ([1]; E. faecium 97023 VanA) was 4 µg/mL and the “MIC Alone” value ([1]; E. faecium 97024 VanA) was 64 µg/mL. For the same substance, the MIC in combination ([1]; E. faecium 97024 VanA) was 8 µg/mL, the “MIC Alone” value ([1]; E. faecium 97025 VanA) was 16 µg/mL and the MIC in combination ([1]; E. faecium 97025 VanA) was 4 µg/mL. The “MIC Alone” value ([1]; E. faecium 97026 VanA) was 64 µg/mL, the MIC in combination ([1]; E. faecium 97026 VanA) was 16 µg/mL and the “MIC Alone” value ([1]; E. faecium 97027 VanA) was 64 µg/mL. For the same substance, the MIC in combination ([1]; E. faecium 97027 VanA) was 8 µg/mL, the “MIC Alone” value ([1]; E. faecium 97028 VanA) was 8 µg/mL and the MIC in combination ([1]; E. faecium 97028 VanA) was 8 µg/mL. The “MIC Alone” value ([1]; E. faecium 97029 VanA) was 64 µg/mL, the MIC in combination ([1]; E. faecium 97029 VanA) was 8 µg/mL and the “MIC Alone” value ([1]; E. faecium 97030 VanA) was 64 µg/mL. For the same substance, the MIC in combination ([1]; E. faecium 97030 VanA) was 32 µg/mL, the “MIC Alone” value ([1]; E. faecium 97031 VanA) was 64 µg/mL and the MIC in combination ([1]; E. faecium 97031 VanA) was 32 µg/mL. For the same substance, the “MIC Alone” value ([1]; E. faecium 97032 VanA) was 64 µg/mL, the MIC in combination ([1]; E. faecium 97032 VanA) was 8 µg/mL and the “MIC Alone” value ([1]; E. faecium 97033 VanA) was 64 µg/mL. For the same substance, the MIC in combination ([1]; E. faecium 97033 VanA) was 8 µg/mL, the “MIC Alone” value ([1]; E. faecium 97034 VanA) was 64 µg/mL and the MIC in combination ([1]; E. faecium 97034 VanA) was 8 µg/mL. The “MIC Alone” value ([1]; E. faecium 97035 VanA) was 64 µg/mL, the MIC in combination ([1]; E. faecium 97035 VanA) was 0.5 µg/mL and the “MIC Alone” value ([1]; E. faecium 97036 VanA) was 8 µg/mL. For the same substance, the MIC in combination ([1]; E. faecium 97036 VanA) was 4 µg/mL, the “MIC Alone” value ([2]; agent alone) was 16 µg/mL and the “MBI 26 MIC, +Erythro.” value ([2]; in combination with erythromycin) was 8 µg/mL. For the same substance, the MIC in combination ([3]; P. aeruginosa PA024, pair Ceftriaxone / MBI 26) was 32 µg/mL, the “MIC Alone” value ([3]; P. aeruginosa PA041, agent alone) was 64 µg/mL and the “MBI 26 MIC, +Erythro.” value ([3]; P. aeruginosa PA041, in combination with erythromycin) was 32 µg/mL.

Substance W R I W K P K W R L P K W [MBI 11D18CN] has an MIC ([4]; A. calcoaceticus AC003) of 32 µg/mL, an MIC ([4]; E. cloacae ECL009) of 64 µg/mL and an MIC ([4]; E. coli ATCC 25922, agarose dilution assay) of 16 µg/mL. The MIC ([4]; E. coli ECO002) was 4 µg/mL, the MIC ([4]; E. coli ESS, agarose dilution assay) was 2 µg/mL and the MIC ([4]; E. coli NCTC 10418, agarose dilution assay) was 2 µg/mL. It also gave an MIC ([4]; E. faecalis EFS002) of 32 µg/mL, an MIC ([4]; E. faecium ATCC 29212, agarose dilution assay) of 8 µg/mL and an MIC ([4]; E. faecium EFM003) of 2 µg/mL. For the same substance, the MIC ([4]; H. influenzae HIN002) was greater than 128 µg/mL, the MIC ([4]; K. pneumoniae KP002) was 64 µg/mL and the MIC ([4]; P. aeruginosa ATCC 27853, agarose dilution assay) was 128 µg/mL. For the same substance, the MIC ([4]; P. aeruginosa NCTC 10662, agarose dilution assay) was 128 µg/mL, the MIC ([4]; P. aeruginosa PA006) was greater than 128 µg/mL and the MIC ([4]; P. mirabilis PM003) was greater than 128 µg/mL. The MIC ([4]; P. vulgaris ATCC 13315, agarose dilution assay) was 32 µg/mL, the MIC ([4]; P. vulgaris SBPV1) was 32 µg/mL and the MIC ([4]; S. aureus ATCC 29213, agarose dilution assay) was 0.5 µg/mL. It also gave an MIC ([4]; S. aureus MRSA9, agarose dilution assay) of 2 µg/mL, an MIC ([4]; S. aureus MRSA13, agarose dilution assay) of 8 µg/mL and an MIC ([4]; S. aureus MRSA17, agarose dilution assay) of 2 µg/mL. For the same substance, the MIC ([4]; S. aureus SA010) was 4 µg/mL, the MIC ([4]; S. aureus SA206, agarose dilution assay) was 4 µg/mL and the MIC ([4]; S. epidermidis SE010) was 2 µg/mL. The MIC ([4]; S. maltophilia SMA003) was 16 µg/mL, the MIC ([4]; S. marcescens SBSM2) was greater than 128 µg/mL and the MIC ([4]; S. marcescens SM76, agarose dilution assay) was greater than 128 µg/mL. For the same substance, the MIC ([4]; S. marcescens SM82, agarose dilution assay) was greater than 128 µg/mL, the MIC ([4]; S. pneumoniae 406LE8, agarose dilution assay) was 64 µg/mL and the MIC ([4]; S. pneumoniae 60120, agarose dilution assay) was 128 µg/mL. For the same substance, the MIC ([4]; S. pneumoniae ATCC 49619, agarose dilution assay) was 64 µg/mL, the MIC ([4]; S. pneumoniae SBSPN3) was 64 µg/mL and the MIC ([4]; S. pyogenes SPY003) was 32 µg/mL.
